Test results taken from PubChem BioAssay AID2060884 (Molecular Pharmacology Branch, DTP, NCI, 2025).

Test system: NCI-H929 complex spheroids, viability % test/control
Assay: Anticancer human tumor NCI-H929 cell line growth inhibition [RAS];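 also: compound exposure lasted seven days before viability was read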;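 as to viability, T/C: 100% = DMSO vehicle control viability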
Details: for IC50: curve of first compound; for viability, T/C: stronger effect = lower value
In short: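 Tumour cells grown as complex spheroids with HUVEC endothelial cells and mesenchymal stem cells, treated with RAS pathway inhibitor combinations. Each agent spans half-log steps from near clinical Cmax, or 10 microM where Cmax is unknown.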

CCc1c2c(nc3ccc(O)cc13)-c1cc3c(c(=O)n1C2)COC(=O)[C@]3(O)CC + CCn1c(-c2cccnc2C(C)OC)c2c3cc(ccc31)N1CCOC(CC(NC(=O)C(C(C)C)N(C)C(=O)C3(F)CCN(C(=O)C#CC(C)(C)N(C)C)CC3)C(=O)N3CCCC(N3)C(=O)OCC(C)(C)C2)C1
IC50 (second compound 0.000949 µM): 0.00138 µM
IC50 (second compound 0.003 µM): 0.00145 µM
IC50 (second compound 0.00949 µM): 0.00134 µM
IC50 (second compound 0.03 µM): 0.0014 µM
IC50 (second compound 0.0949 µM): 0.00122 µM
IC50 (second compound 0.3 µM): < 0.000949 µM
viability, T/C (second compound 0.000949 µM, first compound 0.000949 µM): 72.7%
viability, T/C (second compound 0.000949 µM, first compound 0.003 µM): 2.65%
viability, T/C (second compound 0.000949 µM, first compound 0.00949 µM): 1.03%
viability, T/C (second compound 0.000949 µM, first compound 0.03 µM): 1.2%
viability, T/C (second compound 0.000949 µM, first compound 0.0949 µM): 1.15%
viability, T/C (second compound 0.000949 µM, first compound 0.3 µM): 0.54%
viability, T/C (second compound 0.003 µM, first compound 0.000949 µM): 77%
viability, T/C (second compound 0.003 µM, first compound 0.003 µM): 3.29%
viability, T/C (second compound 0.003 µM, first compound 0.00949 µM): 1.02%
viability, T/C (second compound 0.003 µM, first compound 0.03 µM): 1.1%
viability, T/C (second compound 0.003 µM, first compound 0.0949 µM): 1.07%
viability, T/C (second compound 0.003 µM, first compound 0.3 µM): 0.54%
viability, T/C (second compound 0.00949 µM, first compound 0.000949 µM): 70.4%
viability, T/C (second compound 0.00949 µM, first compound 0.003 µM): 2.82%
viability, T/C (second compound 0.00949 µM, first compound 0.00949 µM): 0.87%
viability, T/C (second compound 0.00949 µM, first compound 0.03 µM): 1.06%
viability, T/C (second compound 0.00949 µM, first compound 0.0949 µM): 1.05%
viability, T/C (second compound 0.00949 µM, first compound 0.3 µM): 0.47%
viability, T/C (second compound 0.03 µM, first compound 0.000949 µM): 74.8%
viability, T/C (second compound 0.03 µM, first compound 0.003 µM): 1.48%
viability, T/C (second compound 0.03 µM, first compound 0.00949 µM): 0.74%
viability, T/C (second compound 0.03 µM, first compound 0.03 µM): 0.96%
viability, T/C (second compound 0.03 µM, first compound 0.0949 µM): 0.84%
viability, T/C (second compound 0.03 µM, first compound 0.3 µM): 0.42%
viability, T/C (second compound 0.0949 µM, first compound 0.000949 µM): 63.8%
viability, T/C (second compound 0.0949 µM, first compound 0.003 µM): 1.38%
viability, T/C (second compound 0.0949 µM, first compound 0.00949 µM): 0.98%
viability, T/C (second compound 0.0949 µM, first compound 0.03 µM): 0.71%
viability, T/C (second compound 0.0949 µM, first compound 0.0949 µM): 0.87%
viability, T/C (second compound 0.0949 µM, first compound 0.3 µM): 0.47%
viability, T/C (second compound 0.3 µM, first compound 0.000949 µM): 48.2%
viability, T/C (second compound 0.3 µM, first compound 0.003 µM): 1.54%
viability, T/C (second compound 0.3 µM, first compound 0.00949 µM): 0.75%
viability, T/C (second compound 0.3 µM, first compound 0.03 µM): 0.83%
viability, T/C (second compound 0.3 µM, first compound 0.0949 µM): 0.84%
viability, T/C (second compound 0.3 µM, first compound 0.3 µM): 0.44%

Cc1nc(N2CCC3(CC2)COC(C)C3N)c(CO)nc1Sc1ccnc(N)c1Cl (stereo unspecified) + CCn1c(-c2cccnc2C(C)OC)c2c3cc(ccc31)N1CCOC(CC(NC(=O)C(C(C)C)N(C)C(=O)C3(F)CCN(C(=O)C#CC(C)(C)N(C)C)CC3)C(=O)N3CCCC(N3)C(=O)OCC(C)(C)C2)C1
IC50 (second compound 0.000949 µM): > 10 µM
IC50 (second compound 0.003 µM): > 10 µM
IC50 (second compound 0.00949 µM): > 10 µM
IC50 (second compound 0.03 µM): > 10 µM
IC50 (second compound 0.0949 µM): > 10 µM
IC50 (second compound 0.3 µM): > 10 µM
viability, T/C (second compound 0.000949 µM, first compound 0.0316 µM): 108%
viability, T/C (second compound 0.000949 µM, first compound 0.1 µM): 99.1%
viability, T/C (second compound 0.000949 µM, first compound 0.316 µM): 102%
viability, T/C (second compound 0.000949 µM, first compound 1 µM): 102%
viability, T/C (second compound 0.000949 µM, first compound 3.16 µM): 102%
viability, T/C (second compound 0.000949 µM, first compound 10 µM): 97.8%
viability, T/C (second compound 0.003 µM, first compound 0.0316 µM): 103%
viability, T/C (second compound 0.003 µM, first compound 0.1 µM): 105%
viability, T/C (second compound 0.003 µM, first compound 0.316 µM): 102%
viability, T/C (second compound 0.003 µM, first compound 1 µM): 101%
viability, T/C (second compound 0.003 µM, first compound 3.16 µM): 103%
viability, T/C (second compound 0.003 µM, first compound 10 µM): 99.5%
viability, T/C (second compound 0.00949 µM, first compound 0.0316 µM): 102%
viability, T/C (second compound 0.00949 µM, first compound 0.1 µM): 101%
viability, T/C (second compound 0.00949 µM, first compound 0.316 µM): 108%
viability, T/C (second compound 0.00949 µM, first compound 1 µM): 100%
viability, T/C (second compound 0.00949 µM, first compound 3.16 µM): 104%
viability, T/C (second compound 0.00949 µM, first compound 10 µM): 102%
viability, T/C (second compound 0.03 µM, first compound 0.0316 µM): 99.4%
viability, T/C (second compound 0.03 µM, first compound 0.1 µM): 103%
viability, T/C (second compound 0.03 µM, first compound 0.316 µM): 103%
viability, T/C (second compound 0.03 µM, first compound 1 µM): 99.8%
viability, T/C (second compound 0.03 µM, first compound 3.16 µM): 106%
viability, T/C (second compound 0.03 µM, first compound 10 µM): 104%
viability, T/C (second compound 0.0949 µM, first compound 0.0316 µM): 104%
viability, T/C (second compound 0.0949 µM, first compound 0.1 µM): 97.1%
viability, T/C (second compound 0.0949 µM, first compound 0.316 µM): 98.2%
viability, T/C (second compound 0.0949 µM, first compound 1 µM): 101%
viability, T/C (second compound 0.0949 µM, first compound 3.16 µM): 98.2%
viability, T/C (second compound 0.0949 µM, first compound 10 µM): 95.7%
viability, T/C (second compound 0.3 µM, first compound 0.0316 µM): 102%
viability, T/C (second compound 0.3 µM, first compound 0.1 µM): 103%
viability, T/C (second compound 0.3 µM, first compound 0.316 µM): 101%
viability, T/C (second compound 0.3 µM, first compound 1 µM): 99.7%
viability, T/C (second compound 0.3 µM, first compound 3.16 µM): 98.2%
viability, T/C (second compound 0.3 µM, first compound 10 µM): 95.5%

NC1c2ccccc2OC12CCN(c1cnc3c(N4CCCc5ncccc54)n[nH]c3n1)CC2 (stereo unspecified) + C=CC(=O)N1CCN(c2nc(OCC3CCCN3C)nc3c(F)c(-c4nc(N)cc(C)c4C(F)(F)F)c(Cl)cc23)C(C)C1
IC50 (second compound 0.00316 µM): > 10 µM
IC50 (second compound 0.01 µM): > 10 µM
IC50 (second compound 0.0316 µM): > 10 µM
IC50 (second compound 0.1 µM): > 10 µM
IC50 (second compound 0.316 µM): > 10 µM
IC50 (second compound 1 µM): > 10 µM
viability, T/C (second compound 0.00316 µM, first compound 0.0316 µM): 98.8%
viability, T/C (second compound 0.00316 µM, first compound 0.1 µM): 94.8%
viability, T/C (second compound 0.00316 µM, first compound 0.316 µM): 99.3%
viability, T/C (second compound 0.00316 µM, first compound 1 µM): 98.9%
viability, T/C (second compound 0.00316 µM, first compound 3.16 µM): 101%
viability, T/C (second compound 0.00316 µM, first compound 10 µM): 66.2%
viability, T/C (second compound 0.01 µM, first compound 0.0316 µM): 96.2%
viability, T/C (second compound 0.01 µM, first compound 0.1 µM): 90.6%
viability, T/C (second compound 0.01 µM, first compound 0.316 µM): 96%
viability, T/C (second compound 0.01 µM, first compound 1 µM): 103%
viability, T/C (second compound 0.01 µM, first compound 3.16 µM): 99%
viability, T/C (second compound 0.01 µM, first compound 10 µM): 66.8%
viability, T/C (second compound 0.0316 µM, first compound 0.0316 µM): 96.9%
viability, T/C (second compound 0.0316 µM, first compound 0.1 µM): 99.7%
viability, T/C (second compound 0.0316 µM, first compound 0.316 µM): 101%
viability, T/C (second compound 0.0316 µM, first compound 1 µM): 99.8%
viability, T/C (second compound 0.0316 µM, first compound 3.16 µM): 96.6%
viability, T/C (second compound 0.0316 µM, first compound 10 µM): 63.5%
viability, T/C (second compound 0.1 µM, first compound 0.0316 µM): 92.4%
viability, T/C (second compound 0.1 µM, first compound 0.1 µM): 99%
viability, T/C (second compound 0.1 µM, first compound 0.316 µM): 102%
viability, T/C (second compound 0.1 µM, first compound 1 µM): 97.4%
viability, T/C (second compound 0.1 µM, first compound 3.16 µM): 97.5%
viability, T/C (second compound 0.1 µM, first compound 10 µM): 69.3%
viability, T/C (second compound 0.316 µM, first compound 0.0316 µM): 101%
viability, T/C (second compound 0.316 µM, first compound 0.1 µM): 103%
viability, T/C (second compound 0.316 µM, first compound 0.316 µM): 105%
viability, T/C (second compound 0.316 µM, first compound 1 µM): 103%
viability, T/C (second compound 0.316 µM, first compound 3.16 µM): 102%
viability, T/C (second compound 0.316 µM, first compound 10 µM): 71.7%
viability, T/C (second compound 1 µM, first compound 0.0316 µM): 104%
viability, T/C (second compound 1 µM, first compound 0.1 µM): 107%
viability, T/C (second compound 1 µM, first compound 0.316 µM): 103%
viability, T/C (second compound 1 µM, first compound 1 µM): 102%
viability, T/C (second compound 1 µM, first compound 3.16 µM): 105%
viability, T/C (second compound 1 µM, first compound 10 µM): 68.9%
